Paper PMC10746543, “Design principles for cyclin K molecular glue degraders” (Nature Chemical Biology, 2023)
Several values for one entry are separate records, joined by “and”; a condition that tells them apart may be missing. Identical values can stand only once. Like-named read-outs stand apart in the source and are kept apart here.

Columns and labels:
[1] = target: T1, CDK12–cyclin K and DDB1 (Homo sapiens, UniProt Q16531+Q9NYV4, K965R); assay: TR-FRET ternary complex formation assay (compound titration); type: binding
T1 construct: His6–CDK12 (a.a. 713–1,052); full-length or beta-propeller B domain deletion (ΔBPB: a.a. 396–705 deleted) constructs of His6–DDB1ΔBPB, StrepII–Avi–DDB1, or His6–Spy–DDB1; made in house; host or cells: Trichoplusia ni High Five insect cells (baculovirus)
How it was run: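 Signal was the ratio of 520 nm to 490 nm fluorescence, measured after a 70 μs delay that reduced background.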

[2] = tested on: cyclin K–eGFP degradation reporter; assay: Cyclin K reporter stability analysis (dual-color cyclin K–eGFP reporter); type: cell-based, human
How it was run: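 First, reporter-bearing HEK293T–Cas9 cells are plated at 1 × 10^6 ml^−1. Next, drug or vehicle is added for 5 h. Finally, geometric-mean eGFP and mCherry signals of round, mCherry-positive cells are measured cytometrically, and their ratio is referenced to the DMSO average.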

[3] = tested on: HEK293T cells; assay: Drug sensitivity assay (CellTiter-Glo viability) with or without MLN4924 pretreatment; type: cell-based, human; conditions: Supplementary Table 2; for EC50: Homo sapiens, HEK-293T, HEK293T viability, 72 h, compound alone, read-out: Cellular assays EC50; for Toxicity rescue: MLN4924-mediated cytotoxicity rescue, 10 µM used where n.d.
How it was run: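 HEK293T–Cas9, 0.15 × 10^6 ml^−1; pretreat DMSO vs 100 nM MLN4924; drugs dispensed after 2 h; 3 d exposure; CellTiter-Glo; viability vs DMSO control.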

[4] = target: CDK12–cyclin K (Homo sapiens, UniProt Q9NYV4); assay: Lanthascreen kinase binding assay, CDK12; conditions: for Lanthascreen raw signal, sheet CDK12: series r37, duplicates
Method: (§1) Lanthascreen experiments were performed using commercially available reagents (Thermo Fisher) and according to the manufacturer’s instructions.

[5] = target: T2, CDK9–cyclin T (Homo sapiens, UniProt P50750); assay: Lanthascreen kinase binding assay, CDK9; conditions: for Lanthascreen TR-FRET signal (raw ratio), sheet CDK9: third titration set (r25), duplicates
T2 construct: purchased Thermo Fisher
Method: as §1

[6] = target: T3, CDK2–cyclin A (Homo sapiens, UniProt P24941); assay: Lanthascreen kinase binding assay, CDK2; conditions: for Lanthascreen signal, sheet CDK2: raw replicates, experiment r36-r46
T3 construct: purchased Thermo Fisher
Method: as §1

[7] = sheet MOESM7, read-out: log TR-FRET EC50 (converted)
[8] = Supplementary Table 2, read-out: Lanthascreen IC50 [nM] CDK12
[9] = Supplementary Table 2, read-out: Lanthascreen IC50 [nM] CDK9
[10] = Lanthascreen, average, Extended Data Fig. 8, read-out: CDK2 IC50
[11] = Supplementary Table 2, read-out: Lanthascreen IC50 [nM] CDK2

T2 sequence (P50750 whole entry): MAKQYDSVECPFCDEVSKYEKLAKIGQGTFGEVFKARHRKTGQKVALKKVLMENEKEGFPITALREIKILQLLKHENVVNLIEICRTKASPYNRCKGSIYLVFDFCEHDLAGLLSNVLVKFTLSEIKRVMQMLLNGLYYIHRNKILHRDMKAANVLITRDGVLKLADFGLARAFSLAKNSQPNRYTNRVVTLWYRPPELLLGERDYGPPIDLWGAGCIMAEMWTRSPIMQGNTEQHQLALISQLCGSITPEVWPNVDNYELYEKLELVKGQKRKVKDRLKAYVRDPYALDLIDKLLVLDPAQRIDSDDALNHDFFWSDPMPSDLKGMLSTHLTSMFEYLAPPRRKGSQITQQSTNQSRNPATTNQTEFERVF
T2 sequence (O60563 whole entry partner): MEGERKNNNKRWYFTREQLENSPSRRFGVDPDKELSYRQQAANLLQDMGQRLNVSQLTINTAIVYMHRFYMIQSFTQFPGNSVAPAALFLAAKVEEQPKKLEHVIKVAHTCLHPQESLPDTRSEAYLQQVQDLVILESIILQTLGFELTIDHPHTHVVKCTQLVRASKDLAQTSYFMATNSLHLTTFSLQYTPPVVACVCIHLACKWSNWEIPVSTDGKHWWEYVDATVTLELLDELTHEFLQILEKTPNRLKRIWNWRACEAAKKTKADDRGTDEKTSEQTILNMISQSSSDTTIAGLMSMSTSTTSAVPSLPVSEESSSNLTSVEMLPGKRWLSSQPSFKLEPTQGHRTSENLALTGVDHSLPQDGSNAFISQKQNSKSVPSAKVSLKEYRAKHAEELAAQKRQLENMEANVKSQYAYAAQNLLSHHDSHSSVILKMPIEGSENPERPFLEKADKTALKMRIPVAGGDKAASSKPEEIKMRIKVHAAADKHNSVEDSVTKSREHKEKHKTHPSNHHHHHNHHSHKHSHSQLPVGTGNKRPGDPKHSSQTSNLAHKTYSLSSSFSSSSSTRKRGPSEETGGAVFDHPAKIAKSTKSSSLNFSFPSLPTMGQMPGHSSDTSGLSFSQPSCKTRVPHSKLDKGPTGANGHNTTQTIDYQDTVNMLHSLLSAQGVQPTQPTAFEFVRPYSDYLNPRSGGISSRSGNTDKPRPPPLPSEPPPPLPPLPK
T1 sequence (Q9NYV4 713-1052 K965R): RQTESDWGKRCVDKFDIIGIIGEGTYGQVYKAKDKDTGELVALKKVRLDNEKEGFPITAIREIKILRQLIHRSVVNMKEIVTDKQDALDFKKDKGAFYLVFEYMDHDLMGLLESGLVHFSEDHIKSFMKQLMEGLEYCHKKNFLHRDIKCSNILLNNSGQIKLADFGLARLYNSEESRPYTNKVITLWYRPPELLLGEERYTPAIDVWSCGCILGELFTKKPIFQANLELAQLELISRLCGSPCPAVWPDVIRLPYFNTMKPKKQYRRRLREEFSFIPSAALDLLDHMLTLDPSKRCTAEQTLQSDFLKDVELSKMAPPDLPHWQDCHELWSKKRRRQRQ
T1 sequence (O75909 1-267 partner): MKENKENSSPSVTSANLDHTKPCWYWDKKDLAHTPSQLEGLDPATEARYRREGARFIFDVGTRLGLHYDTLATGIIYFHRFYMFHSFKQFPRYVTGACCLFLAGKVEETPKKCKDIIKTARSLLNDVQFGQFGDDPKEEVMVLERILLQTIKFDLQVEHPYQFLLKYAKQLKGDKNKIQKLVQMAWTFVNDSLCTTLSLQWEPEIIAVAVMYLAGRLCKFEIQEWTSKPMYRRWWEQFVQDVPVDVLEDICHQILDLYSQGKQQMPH
T1 sequence (Q16531 whole entry): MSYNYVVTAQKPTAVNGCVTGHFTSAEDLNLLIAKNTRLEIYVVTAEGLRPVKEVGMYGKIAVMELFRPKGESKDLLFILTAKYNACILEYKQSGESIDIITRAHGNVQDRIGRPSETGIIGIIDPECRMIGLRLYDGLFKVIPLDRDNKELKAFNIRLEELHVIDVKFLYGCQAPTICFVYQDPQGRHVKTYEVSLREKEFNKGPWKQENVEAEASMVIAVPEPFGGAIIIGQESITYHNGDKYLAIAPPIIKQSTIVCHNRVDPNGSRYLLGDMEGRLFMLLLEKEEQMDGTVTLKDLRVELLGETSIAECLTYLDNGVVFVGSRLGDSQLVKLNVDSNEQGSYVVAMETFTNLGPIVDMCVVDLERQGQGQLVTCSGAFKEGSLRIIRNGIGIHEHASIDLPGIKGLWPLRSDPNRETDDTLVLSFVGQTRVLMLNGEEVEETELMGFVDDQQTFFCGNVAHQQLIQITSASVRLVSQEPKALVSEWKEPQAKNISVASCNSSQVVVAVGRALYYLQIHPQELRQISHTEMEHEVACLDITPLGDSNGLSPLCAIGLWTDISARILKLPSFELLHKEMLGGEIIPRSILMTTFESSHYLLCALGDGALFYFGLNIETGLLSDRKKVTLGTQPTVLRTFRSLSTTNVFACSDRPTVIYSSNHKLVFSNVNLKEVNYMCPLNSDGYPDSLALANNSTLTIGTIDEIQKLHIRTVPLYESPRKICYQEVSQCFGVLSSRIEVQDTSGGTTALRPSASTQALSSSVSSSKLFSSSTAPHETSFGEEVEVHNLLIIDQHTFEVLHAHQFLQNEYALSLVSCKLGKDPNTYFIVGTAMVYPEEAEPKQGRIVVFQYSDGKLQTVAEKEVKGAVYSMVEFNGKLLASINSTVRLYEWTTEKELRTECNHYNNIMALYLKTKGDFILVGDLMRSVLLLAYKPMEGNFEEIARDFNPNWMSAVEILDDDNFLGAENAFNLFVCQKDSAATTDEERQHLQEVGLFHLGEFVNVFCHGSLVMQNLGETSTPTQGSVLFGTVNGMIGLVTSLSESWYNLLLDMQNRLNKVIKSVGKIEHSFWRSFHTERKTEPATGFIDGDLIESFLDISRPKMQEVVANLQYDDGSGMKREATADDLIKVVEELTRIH
Sequence of CDK12–cyclin K (Q9NYV4 713-1052): as the sequence (Q9NYV4 713-1052 K965R) above, with R253K counted along it
Sequence of CDK12–cyclin K (O75909 1-267 partner limits assumed): as the sequence (O75909 1-267 partner) above

## CC[C@H](CO)Nc1nc(NCc2nc3cc(Cl)c(Cl)cc3[nH]2)c2ncn(-c3cnn(C)c3)c2n1 [DS22]
[1]; compound concentration 0.468 nM, raw replicate titration data
  TR-FRET signal at compound concentration 0.468 nM: 0.2612 and 0.2579 and 0.218 and 0.2096
[1]; compound concentration 2.16 nM, raw replicate titration data
  TR-FRET signal at compound concentration 2.16 nM: 0.3357 and 0.3419 and 0.2765 and 0.3174
[1]; compound concentration 3.6 nM, raw replicate titration data
  TR-FRET signal at compound concentration 3.6 nM: 0.4892 and 0.5148 and 0.5183 and 0.5347
[1]; compound concentration 7.92001 nM, raw replicate titration data
  TR-FRET signal at compound concentration 7.92001 nM: 0.8316 and 0.8843 and 0.9885 and 1.068
[1]; compound concentration 15.84 nM, raw replicate titration data
  TR-FRET signal at compound concentration 15.84 nM: 1.474 and 1.574 and 1.714 and 1.959
[1]; compound concentration 30.96 nM, raw replicate titration data
  TR-FRET signal at compound concentration 30.96 nM: 2.47 and 2.714 and 3.094 and 3.238
[1]; compound concentration 62.6401 nM, raw replicate titration data
  TR-FRET signal at compound concentration 62.6401 nM: 3.3967 and 3.4513 and 3.77 and 3.733
[1]; compound concentration 125.28 nM, raw replicate titration data
  TR-FRET signal at compound concentration 125.28 nM: 3.673 and 3.6963 and 3.89 and 3.859
[1]; compound concentration 244.8 nM, raw replicate titration data
  TR-FRET signal at compound concentration 244.8 nM: 3.796 and 3.869 and 3.911 and 3.923
[1]; compound concentration 993.601 nM, raw replicate titration data
  TR-FRET signal at compound concentration 993.601 nM: 3.806 and 3.925 and 3.935 and 3.945
[1]; compound concentration 2001.6 nM, raw replicate titration data
  TR-FRET signal at compound concentration 2001.6 nM: 3.846 and 3.958 and 4 and 4.014
[1]; in vitro complex formation, 50 nM CDK12–cyclin K, 100 nM DDB1, text and figures, read-out: TR-FRET EC50
  EC50: 0.019 ± 0.001 µM
[1]; [7]
  EC50: 0.0193 µM
[1]; source data sheet correlations, read-out: TR-FRET EC50
  EC50: 0.0193 µM
[2]; source data sheet correlations, read-out: DC50
  DC50: 0.109 µM
[3]
  EC50: 0.935 µM
  Toxicity rescue: 66%
[4]; [8]
  IC50: 1320 nM
[4]; compound 0.038147 nM
  Lanthascreen raw signal, sheet CDK12: 0.01422 and 0.01468
[4]; compound 0.152588 nM
  Lanthascreen raw signal, sheet CDK12: 0.01335 and 0.01357
[4]; compound 0.610352 nM
  Lanthascreen raw signal, sheet CDK12: 0.01416 and 0.01634
[4]; compound 9.76563 nM
  Lanthascreen raw signal, sheet CDK12: 0.01407 and 0.01436
[4]; compound 39.0625 nM
  Lanthascreen raw signal, sheet CDK12: 0.01347 and 0.01362
[4]; compound 156.25 nM
  Lanthascreen raw signal, sheet CDK12: 0.01258 and 0.01228
[4]; compound 625 nM
  Lanthascreen raw signal, sheet CDK12: 0.01036 and 0.01104
[4]; compound 2500 nM
  Lanthascreen raw signal, sheet CDK12: 0.007943 and 0.008192
[4]; compound 10000 nM
  Lanthascreen raw signal, sheet CDK12: 0.006259 and 0.005981
[5]; Lanthascreen, average, Extended Data Fig. 8, read-out: CDK9 IC50
  IC50: > 10000 nM
[5]; [9]
  IC50: > 10000 nM
[5]; compound 0.038147 nM
  Lanthascreen TR-FRET signal (raw ratio), sheet CDK9: 0.01967 and 0.01921
[5]; compound 0.152588 nM
  Lanthascreen TR-FRET signal (raw ratio), sheet CDK9: 0.02095 and 0.01844
[5]; compound 0.610352 nM
  Lanthascreen TR-FRET signal (raw ratio), sheet CDK9: 0.02014 and 0.01923
[5]; compound 9.76563 nM
  Lanthascreen TR-FRET signal (raw ratio), sheet CDK9: 0.02017 and 0.01981
[5]; compound 39.0625 nM
  Lanthascreen TR-FRET signal (raw ratio), sheet CDK9: 0.02067 and 0.01823
[5]; compound 156.25 nM
  Lanthascreen TR-FRET signal (raw ratio), sheet CDK9: 0.02063 and 0.01896
[5]; compound 625 nM
  Lanthascreen TR-FRET signal (raw ratio), sheet CDK9: 0.01918 and 0.01876
[5]; compound 2500 nM
  Lanthascreen TR-FRET signal (raw ratio), sheet CDK9: 0.01797 and 0.01674
[5]; compound 10000 nM
  Lanthascreen TR-FRET signal (raw ratio), sheet CDK9: 0.01641 and 0.01561
[6]; Compound 0.038147 nM
  Lanthascreen signal, sheet CDK2: 0.01361 and 0.01332
[6]; Compound 0.152588 nM
  Lanthascreen signal, sheet CDK2: 0.01367 and 0.01361
[6]; Compound 0.610352 nM
  Lanthascreen signal, sheet CDK2: 0.01456 and 0.01463
[6]; Compound 9.76563 nM
  Lanthascreen signal, sheet CDK2: 0.01461 and 0.01423
[6]; Compound 39.0625 nM
  Lanthascreen signal, sheet CDK2: 0.01375 and 0.01404
[6]; Compound 156.25 nM
  Lanthascreen signal, sheet CDK2: 0.01392 and 0.01367
[6]; Compound 625 nM
  Lanthascreen signal, sheet CDK2: 0.01433 and 0.01409
[6]; Compound 2500 nM
  Lanthascreen signal, sheet CDK2: 0.01378 and 0.01394
[6]; Compound 10000 nM
  Lanthascreen signal, sheet CDK2: 0.01296 and 0.01217
[6]; [10]
  IC50: > 10000 nM
[6]; [11]
  IC50: > 10000 nM

## CC[C@H](CO)Nc1nc(NCc2ccc(-c3ccccn3)cc2)c2ncn(-c3cnn(C)c3)c2n1 [DS20]
[1]; compound concentration 4.68 nM, raw replicate titration data
  TR-FRET signal at compound concentration 4.68 nM: 0.1341 and 0.1393
[1]; compound concentration 21.6 nM, raw replicate titration data
  TR-FRET signal at compound concentration 21.6 nM: 0.1505 and 0.1671
[1]; compound concentration 36 nM, raw replicate titration data
  TR-FRET signal at compound concentration 36 nM: 0.1763 and 0.1953
[1]; compound concentration 79.2001 nM, raw replicate titration data
  TR-FRET signal at compound concentration 79.2001 nM: 0.2244 and 0.2373
[1]; compound concentration 158.4 nM, raw replicate titration data
  TR-FRET signal at compound concentration 158.4 nM: 0.3075 and 0.3209
[1]; compound concentration 309.6 nM, raw replicate titration data
  TR-FRET signal at compound concentration 309.6 nM: 0.4615 and 0.4691
[1]; compound concentration 626.401 nM, raw replicate titration data
  TR-FRET signal at compound concentration 626.401 nM: 0.7336 and 0.7393
[1]; compound concentration 1252.8 nM, raw replicate titration data
  TR-FRET signal at compound concentration 1252.8 nM: 1.129 and 1.14
[1]; compound concentration 2448 nM, raw replicate titration data
  TR-FRET signal at compound concentration 2448 nM: 1.631 and 1.657
[1]; compound concentration 9936.01 nM, raw replicate titration data
  TR-FRET signal at compound concentration 9936.01 nM: 2.437 and 2.497
[1]; compound concentration 20016 nM, raw replicate titration data
  TR-FRET signal at compound concentration 20016 nM: 2.527 and 2.638
[1]; in vitro TR-FRET
  DDB1–CDK12 complex formation, result in words: poorer glues
[1]; [7]
  EC50: 1.84 µM
[2]; Supplementary Table 2, HEK293T cycK-eGFP reporter, 5 h, read-out: Cellular assays DC50
  DC50: > 10 µM
[3]
  EC50: > 10 µM
  Toxicity rescue: 0%
[4]; Lanthascreen, average, Extended Data Fig. 8, read-out: CDK12 IC50
  IC50: > 10000 nM
[4]; [8]
  IC50: > 10000 nM
[4]; compound 0.038147 nM
  Lanthascreen raw signal, sheet CDK12: 0.01392 and 0.01331
[4]; compound 0.152588 nM
  Lanthascreen raw signal, sheet CDK12: 0.01475 and 0.01452
[4]; compound 0.610352 nM
  Lanthascreen raw signal, sheet CDK12: 0.01495
[4]; compound 9.76563 nM
  Lanthascreen raw signal, sheet CDK12: 0.01647 and 0.01469
[4]; compound 39.0625 nM
  Lanthascreen raw signal, sheet CDK12: 0.0142 and 0.01474
[4]; compound 156.25 nM
  Lanthascreen raw signal, sheet CDK12: 0.01388 and 0.01469
[4]; compound 625 nM
  Lanthascreen raw signal, sheet CDK12: 0.01464 and 0.015
[4]; compound 2500 nM
  Lanthascreen raw signal, sheet CDK12: 0.01337 and 0.01367
[4]; compound 10000 nM
  Lanthascreen raw signal, sheet CDK12: 0.01057 and 0.01115
[5]; [9]
  IC50: 3200 nM
[5]; compound 0.038147 nM
  Lanthascreen TR-FRET signal (raw ratio), sheet CDK9: 0.01966 and 0.01664
[5]; compound 0.152588 nM
  Lanthascreen TR-FRET signal (raw ratio), sheet CDK9: 0.02094 and 0.01978
[5]; compound 0.610352 nM
  Lanthascreen TR-FRET signal (raw ratio), sheet CDK9: 0.02169 and 0.01748
[5]; compound 9.76563 nM
  Lanthascreen TR-FRET signal (raw ratio), sheet CDK9: 0.02175 and 0.01903
[5]; compound 39.0625 nM
  Lanthascreen TR-FRET signal (raw ratio), sheet CDK9: 0.02145 and 0.01745
[5]; compound 156.25 nM
  Lanthascreen TR-FRET signal (raw ratio), sheet CDK9: 0.02109 and 0.01723
[5]; compound 625 nM
  Lanthascreen TR-FRET signal (raw ratio), sheet CDK9: 0.02056 and 0.01753
[5]; compound 2500 nM
  Lanthascreen TR-FRET signal (raw ratio), sheet CDK9: 0.01726 and 0.0135
[5]; compound 10000 nM
  Lanthascreen TR-FRET signal (raw ratio), sheet CDK9: 0.01114 and 0.009536
[6]; Compound 0.038147 nM
  Lanthascreen signal, sheet CDK2: 0.01372 and 0.01355
[6]; Compound 0.152588 nM
  Lanthascreen signal, sheet CDK2: 0.01402 and 0.01425
[6]; Compound 0.610352 nM
  Lanthascreen signal, sheet CDK2: 0.0137 and 0.01464
[6]; Compound 9.76563 nM
  Lanthascreen signal, sheet CDK2: 0.01391 and 0.01419
[6]; Compound 39.0625 nM
  Lanthascreen signal, sheet CDK2: 0.01392 and 0.01397
[6]; Compound 156.25 nM
  Lanthascreen signal, sheet CDK2: 0.01435 and 0.01404
[6]; Compound 625 nM
  Lanthascreen signal, sheet CDK2: 0.01359 and 0.01432
[6]; Compound 2500 nM
  Lanthascreen signal, sheet CDK2: 0.01402 and 0.01364
[6]; Compound 10000 nM
  Lanthascreen signal, sheet CDK2: 0.01203 and 0.01167
[6]; [10]
  IC50: > 10000 nM
[6]; [11]
  IC50: > 10000 nM
